In US20060074243A1, “Hydroxamic acid and amide compounds and their use as protease inhibitors” (Pharmacia Corporation, priority 2002, published 2006):

Molecular target: T1, Human recombinant MMP-13 (Homo sapiens, UniProt P45452)
T1 construct: made in house; host or cells: baculovirus / insect cells
Experiment: In vitro MMP inhibition analysis (fluorogenic peptide substrate cleavage), Ki
Format: biochemical
Description: Several compounds and salts were analyzed in an in vitro assay to determine their ability to inhibit the MMP cleavage of peptide substrates. Inhibition constant (Ki) were calculated from the assayed compound-MMP interactions.
Human recombinant MMP-1, MMP-2, MMP-9, MMP-13, and MMP-14 were used in this assay. All enzymes were prepared in Assignee's laboratories following usual laboratory procedures. Protocols for the preparation and use of these enzymes are available in the scientific literature. See, e.g., Enzyme Nomenclature (Academic Press, San Diego, Calif., 1992) (and the citations therein). See also, Frije et al., J. Biol. Chem., 26(24), 16766-73 (1994).
The MMP-13 was obtained as a proenzyme from a full-length cDNA clone using baculovirus, as described by V. A. Luckow, “Insect Cell Expression Technology,” Protein Engineering: Principles and Practice, pp. 183-218 (edited by J. L. Cleland et al., Wiley-Liss, Inc., 1996). The expressed proenzyme was first purified over a heparin agarose column, and then over a chelating zinc chloride column. The proenzyme was then activated by APMA for use in the assay. Further details on baculovirus expression systems may be found in, for example, Luckow et al., J. Virol., 67, 4566-79 (1993). See also, O'Reilly et al, Baculovirus Expression Vectors: A Laboratory Manual (W.H. Freeman and Co., New York, N.Y., 1992). See also, King et al., The Baculovirus Expression System: A Laboratory Guide (Chapman & Hall, London, England, 1992).
All MMPs were activated using 4-aminophenylmercuric acetate (“APMA”, Sigma Chemical, St. Louis, Mo.) or trypsin. MMP-9 also was activated using human recombinant MMP-3 (purified in Assignee's laboratory following standard cloning and purification techniques).
The following fluorogenic, methoxycoumarin-containing polypeptide substrate (I) was used in the MMP inhibition assays: MCA-ArgProLeuGlyLeuDpaAlaArgGluArgNH2 (I) “MCA” is 7-methoxycoumarin-4-yl acetyl. Substrate (I) was prepared Assignee's laboratory. In the absence of MMP inhibitory activity, the substrate is cleaved at the Gly-Leu peptide bond. This cleavage separates the highly fluorogenic peptide from the 2,4-dinitrophenyl quencher, thus resulting in increase of fluorescent intensity.
The stock solutions of the assayed compounds and salts were prepared in […] (DMSO). These stock solutions were diluted in Buffer A (100 mM Tris-HCl, 100 mM NaCl, 10 mM CaCl2, 0.05% polyoxyethylene 23 lauryl ether, pH 7.5) to obtain solutions with different compound concentrations, i.e., assay solutions with different concentrations of the assayed […] compound. The experiment controls contained the same amount of Buffer A/DMSO as the assayed sample, but contained none of the tested compound or salt.
The assays from which the Ki determinations were made were performed as follows. The assayed compound samples were incubated in separate wells of untreated white polystyrene plates (Nunc Nalgene International, Rochester, N.Y.), and analyzed on a Tecan SpectraFlour Plus plate reader. The excitation wavelength was 330 nm, and the emission wavelength—420 nm. All samples (assayed compounds and controls) were incubated in separate plate wells at room temperature for 1 hr in the presence of 4 μM of MMP substrate (I). In the absence of MMP inhibitory activity, substrate (I) was cleaved at the Gly-Leu bond resulting in an increase of relative fluorescence. Inhibition was observed as a reduced rate of this increase in relative fluorescence. […] This protocol is a modification of method by Knight et al., FEBS Lett., 296(3), 263-266 (1992). Apparent inhibitory constants were determined by non-linear regression of reaction velocity as a function of inhibitor and enzyme concentration using Morrison's equation, as described by Kuzmic, Anal. Biochem. 286, 45-50 (2000). […]

| SMILES | Ki (Table 1) | Ki (Table 2) |
| --- | --- | --- |
| O=C(NO)C1(S(=O)(=O)c2ccc(-c3ccc(CCC(F)(F)C(F)(F)F)cn3)cc2)CCOCC1 [Example 36] | 0.0403 nM |  |
| CCOCCOc1ccc(-c2ccc(S(=O)(=O)C3(C(=O)NO)CCOCC3)cc2)cc1 [Example 37] | 0.028 nM |  |
| O=C(NO)C1(S(=O)(=O)c2ccc(-c3ccc(OC(F)(F)C(F)F)cc3)cc2)CCN(CCl)CC1 [Example 38] | 0.02 nM |  |
| COCCN1CCC(C(=O)NO)(S(=O)(=O)c2ccc(-c3ccc(OC(F)(F)C(F)F)cc3)cc2)CC1 [Example 39] | 0.011 nM |  |
| O=C(NO)C1(S(=O)(=O)c2ccc(-c3ccc(OC(F)(F)C(F)F)cc3)cc2)CCN(C2CC2)CC1 [Example 40] | 0.066 nM |  |
| O=C(NO)C1(S(=O)(=O)c2ccc(-c3ccc(CCC(F)(F)C(F)(F)F)cc3)cc2)CCOCC1 [Example 41] | 0.224 nM |  |
| O=C(NO)C1(S(=O)(=O)c2ccc(-c3ccc(CCCC(F)(F)F)cc3)cc2)CCOCC1 [Example 42] | 0.072 nM |  |
| COCCN1CCC(C(=O)NO)(S(=O)(=O)c2ccc(-c3ccc(CCCC(F)(F)F)cc3)cc2)CC1 [Example 43] | 0.06 nM |  |
| O=C(NO)C1(S(=O)(=O)c2ccc(-c3ccc(CCCC(F)(F)F)cc3)cc2)CCN(C2CC2)CC1 [Example 44] | 0.13 nM |  |
| O=C(NO)C1(S(=O)(=O)c2ccc(-c3ccc(CCC(F)(F)C(F)(F)F)cc3)cc2)CCN(C2CC2)CC1 [Example 45] | 0.46 nM |  |
| COCCN1CCC(C(=O)NO)(S(=O)(=O)c2ccc(-c3ccc(CCC(F)(F)C(F)(F)F)cc3)cc2)CC1 [Example 46] | 0.11 nM |  |
| COCCC(C(=O)NO)S(=O)(=O)c1ccc(-c2ccc(CCCC(F)(F)F)cc2)cc1 (stereo not shown) [Example 47] | 0.4 nM |  |
| CC(C)(C)N1CCC(C(=O)NO)(S(=O)(=O)c2ccc(-c3ccc(CCCC(F)(F)F)cc3)cc2)CC1 [Example 48] | 0.221 nM |  |
| O=C(NO)C1(S(=O)(=O)c2ccc(-c3cnc(CCC4CC4)cn3)cc2)CCOCC1 [Example 49] | 0.71 nM |  |
| O=C(NO)C1(S(=O)(=O)c2ccc(-c3ccc(CCC(F)(F)C(F)(F)F)cn3)cc2)CCN(C2CC2)CC1 [Example 50] | 0.12 nM |  |
| O=C(NO)C1(S(=O)(=O)c2ccc(-c3ccc(CCCC(F)(F)F)cn3)cc2)CCN(C2CC2)CC1 [Example 51] | 0.05 nM |  |
| CCN1CCC(C(=O)NO)(S(=O)(=O)c2ccc(-c3ccc(CCC(F)(F)C(F)(F)F)cn3)cc2)CC1 [Example 52] | 0.07 nM |  |
| CCN1CCC(C(=O)NO)(S(=O)(=O)c2ccc(-c3ccc(CCCC(F)(F)F)cn3)cc2)CC1 [Example 53] | 0.06 nM |  |
| COCCN1CCC(C(=O)NO)(S(=O)(=O)c2ccc(-c3ccc(CCCC(F)(F)F)cn3)cc2)CC1 [Example 54] | 0.3 nM |  |
| O=C(NO)C1(S(=O)(=O)c2ccc(-c3cnc(CCC(F)(F)C(F)(F)F)cn3)cc2)CCOCC1 [Example 55] | 0.222 nM |  |
| O=C(NO)C1(S(=O)(=O)c2ccc(-c3ccc(CCCC(F)F)cc3)cc2)CCOCC1 [Example 57] | 0.04 nM |  |
| O=C(NO)C1(S(=O)(=O)c2ccc(-c3cnc(CCCC(F)(F)F)cn3)cc2)CCOCC1 [Example 58] | 0.45 nM |  |
| CC(F)(F)CCc1ccc(-c2ccc(S(=O)(=O)C3(C(=O)NO)CCN(C4CC4)CC3)cc2)cc1 [Example 59] | 0.05 nM |  |
| CC(F)(F)CCc1cnc(-c2ccc(S(=O)(=O)C3(C(=O)NO)CCOCC3)cc2)cn1 [Example 60] | 0.212 nM |  |
| CCN1CCC(C(=O)NO)(S(=O)(=O)c2ccc(-c3ccc(CCC(C)(F)F)cc3)cc2)CC1 [Example 61] | 0.02 nM |  |
| O=C(NO)C1(S(=O)(=O)c2ccc(-c3cnc(CCC(F)(F)F)cn3)cc2)CCOCC1 [Example 62] | 0.45 nM |  |
| COCCN1CCC(C(=O)NO)(S(=O)(=O)c2ccc(-c3ccc(CCC(C)(F)F)cc3)cc2)CC1 [Example 63] | 0.01 nM |  |
| CCN1CCC(C(=O)NO)(S(=O)(=O)c2ccc(-c3cnc(CCC(C)(F)F)cn3)cc2)CC1 [Example 64] | 0.296 nM |  |

| SMILES | Ki (Table 1) | Ki (Table 2) |
| --- | --- | --- |
| COCCN1CCC(C(=O)NO)(S(=O)(=O)c2ccc(-c3cnc(CCC(C)(F)F)cn3)cc2)CC1 [Example 65] | 0.27 nM |  |
| CC(F)(F)CCc1cnc(-c2ccc(S(=O)(=O)C3(C(=O)NO)CCN(C4CC4)CC3)cc2)cn1 [Example 66] | 0.23 nM |  |
| COCCN1CCC(C(=O)NO)(S(=O)(=O)c2ccc(-c3ccc(CCC(C)(F)F)cn3)cc2)CC1 [Example 67] | 0.07 nM |  |
| O=C(NO)C1(S(=O)(=O)c2ccc(-c3ccc(OC(F)(F)C(F)F)cc3)cc2)CCOCC1 [Example 68] | 0.0509 nM |  |
| O=C(NO)C1(S(=O)(=O)c2ccc(-c3ccc(CCCC(F)(F)F)cn3)cc2)CCOCC1 [Example 69] | 0.082 nM |  |
| CCCCOc1cnc(-c2ccc(S(=O)(=O)C3(C(=O)NO)CCOCC3)cc2)cn1 [Example 73] |  | 0.028 nM |
| O=C(NO)C1(S(=O)(=O)c2ccc(-c3ccc(OCCCC(F)(F)F)cc3)cc2)CCOCC1 [Example 74] |  | 0.102 nM |
| CCCCCc1ccc(-c2ccc(S(=O)(=O)C3(C(=O)NO)CCOCC3)cc2)cc1 [Example 75] |  | 0.299 nM |
| CC(=O)Nc1cnc(-c2ccc(S(=O)(=O)C3(C(=O)NO)CCOCC3)cc2)cn1 [Example 76] |  | 31.7 nM |
| CCN1CCC(C(=O)NO)(S(=O)(=O)c2ccc(-c3ccc(OCCCCO)cc3)cc2)CC1 [Example 118] |  | 0.012 nM |
| CCCCOc1ccc(-c2ccc(S(=O)(=O)C3(C(=O)NO)CCN(CCOC)CC3)cc2)cc1 [Example 119] |  | 0.018 nM |
| CCCCOc1ccc(-c2ccc(S(=O)(=O)C3(C(=O)NO)CCN(C4CC4)CC3)cc2)cc1 [Example 120] |  | 0.082 nM |
| O=C(NO)C1(S(=O)(=O)c2ccc(-c3ncccn3)cc2)CCOCC1 [Example 121] |  | 4.86 nM |
| CCc1cnc(-c2ccc(S(=O)(=O)C3(C(=O)NO)CCOCC3)cc2)nc1 [Example 122] |  | 1.56 nM |
| CCc1csc(Nc2ccc(-c3ccc(S(=O)(=O)C4(C(=O)NO)CCOCC4)cc3)cc2)n1 [Example 124] |  | 3.3 nM |
| O=C(NO)C1(S(=O)(=O)c2ccc(-c3ccc(-n4cncn4)cc3)cc2)CCOCC1 [Example 126] |  | 0.048 nM |
| O=C(NO)C1(S(=O)(=O)c2ccc(-c3ccc(-n4ccnc4)cc3)cc2)CCOCC1 [Example 127] |  | 0.03 nM |
| O=C(NO)C1(S(=O)(=O)c2ccc(-c3cnc(NCC4CC4)cn3)cc2)CCOCC1 [Example 128] |  | 3.4 nM |
| O=C(NO)C1(S(=O)(=O)c2ccc(-c3ccc(CCC4CCCCC4)cn3)cc2)CCOCC1 [Example 129] |  | 0.383 nM |
| CC(C)(C)CCNc1cnc(-c2ccc(S(=O)(=O)C3(C(=O)NO)CCOCC3)cc2)cn1 [Example 130] |  | 1.27 nM |
| O=C(NO)C1(S(=O)(=O)c2ccc(-c3cnc(N4CCCCC4)cn3)cc2)CCOCC1 [Example 131] |  | 2.04 nM |
| O=C(NO)C1(S(=O)(=O)c2ccc(-c3cscc3-c3ccc(F)cc3)cc2)CCOCC1 [Example 132] |  | 71 nM |
| O=C(NO)C1(S(=O)(=O)c2ccc(-c3ccc(CCC(F)(C(F)(F)F)C(F)(F)F)cn3)cc2)CCOCC1 [Example 133] |  | 2.06 nM |
| O=C(NO)C1(S(=O)(=O)c2ccc(-c3noc(-c4ccc(F)cc4)n3)cc2)CCOCC1 [Example 134] |  | 1.76 nM |
| CCN1CCC(C(=O)NO)(S(=O)(=O)c2ccc(-c3ccc(Oc4ccccc4)cc3)cc2)CC1 [Example 135] |  | 0.742 nM |
| CCN1CCC(C(=O)NO)(S(=O)(=O)c2ccc(-c3ccc(-c4ccncc4)cc3)cc2)CC1 [Example 136] |  | 0.021 nM |
| O=C(NO)C1(S(=O)(=O)c2ccc(-c3ncc(CCC(F)(F)C(F)(F)F)cn3)cc2)CCOCC1 [Example 137] |  | 0.17 nM |
